Test results published in patent publication US20150105252A1, “SUBSTITUTED PYRAZOLES AS HERBICIDES” (E I DU PONT DE NEMOURS AND COMPANY, priority 2013, published 2015).
Several values for one entry are separate records, joined by “and”; a condition that tells them apart may be missing. Equal values may be shown once.

Experiments:
[1] = test system: dayflower, VA; test: Test F postemergence; type: in vivo, Commelina virginica; settings: scale 0 to 100
From the text: (§1) Seeds of plant species selected from corn (Zea mays), soybean (Glycine max), velvetleaf (Abutilon theophrasti), lambsquarters (Chenopodium album), wild poinsettia (Euphorbia heterophylla), pigweed, palmer (palmer pigweed, Amaranthus palmeri), common waterhemp (Amaranthus rudis), surinam grass (Brachiaria decumbens), large crabgrass (Digitaria sanguinalis), crabgrass, Brazil (Brazilian crabgrass, Digitaria horizontalis), fall panicum (Panicum dichotomiflorum), giant foxtail (Setaria faberii), green foxtail (Setaria viridis), goosegrass (Eleusine indica), johnsongrass (Sorghum halepense), common ragweed (Ambrosia elation), barnyardgrass (Echinochloa crus-galli), southern sandbur (Cenchrus echinatus), arrowleaf sida (Sida rhombifolia), Italian ryegrass (Lolium multiflorum), dayflower, VA (Virginia (VA) dayflower, Commelina virginica), field bindweed (Convolvulus arvensis), cocklebur (common cocklebur, Xanthium strumarium), morningglory (Ipomoea coccinea), nightshade (eastern black nightshade, Solanum ptycanthum), kochia (Kochia scoparia), yellow nutsedge (Cyperus esculentus), and hairy beggarticks (Bidens pilosa), were planted into a silt loam soil and treated preemergence with test chemicals formulated in a non-phytotoxic solvent mixture which included a surfactant.
(§2) At the same time, plants from these crop and weed species and also horseweed (Canada horseweed, Conyza canadensis), smartweed (ladysthumb smartweed, Polygonum persicaria), waterhemp_RES1, (ALS & Triazine resistant common waterhemp, Amaranthus rudis), and waterhemp_RES2, (ALS & HPPD resistant common waterhemp, Amaranthus rudis) were treated with postemergence applications of test chemicals formulated in the same manner. Plants ranged in height from 2 to 18 cm for postemergence treatments (1- to 4-leaf stage). Treated plants and controls were maintained in a greenhouse for 14 to 21 days, after which time all species were compared to controls and visually evaluated. Plant response ratings, summarized in Table F, are based on a scale of 0 to 100 where 0 is no effect and 100 is complete control. A dash (-) response means no test result.

[2] = test system: wild poinsettia; test: Test F postemergence; type: in vivo, Euphorbia heterophylla; settings: scale 0 to 100
From the text: as §1, §2

[3] = test system: hairy beggarticks; test: Test F postemergence; type: in vivo, Bidens pilosa; settings: scale 0 to 100
Method in brief: (§3)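 Pre- and postemergence applications used the same formulation, a non-phytotoxic solvent mixture including surfactant. Soil-applied treatment followed sowing into silt loam, whereas foliar treatment hit plants at the 1- to 4-leaf stage. Scores (0 = no effect, 100 = complete control) were assigned visually after 14–21 days.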

[4] = test system: corn; test: Test F preemergence; type: in vivo, Zea mays
From the text: as §1, §2

[5] = test system: kochia; test: Test F preemergence; type: in vivo, Kochia scoparia
Method in brief: as §3

[6] = test system: arrowleaf sida; test: Test F postemergence; type: in vivo, Sida rhombifolia; settings: scale 0 to 100
From the text: as §1, §2

[7] = test system: corn; test: Test F postemergence; type: in vivo, Zea mays; settings: scale 0 to 100
Method in brief: as §3

[8] = test system: giant foxtail; test: Test F preemergence; type: in vivo, Setaria faberii
Method in brief: as §3

[9] = test system: pigweed, palmer; test: Test F preemergence; type: in vivo, Amaranthus palmeri
From the text: as §1, §2

[10] = Preemergence, 31 g ai/ha, scale 0 to 100
[11] = Preemergence, 62 g ai/ha, scale 0 to 100
[12] = Preemergence, 125 g ai/ha, scale 0 to 100
[13] = preemergence, 8 g ai/ha, scale 0 to 100, 100 is complete control
[14] = preemergence, 16 g ai/ha, scale 0 to 100, 100 is complete control

## CCc1cc(-c2ccc(C(F)(F)F)cc2)nn1Cc1ccnc(C(F)(F)F)c1 [Compound 110]
[1]; Postemergence, 16 g ai/ha
  Plant response rating, Dayflower, VA: 50
[1]; Postemergence, 31 g ai/ha
  Plant response rating, Dayflower, VA: 40
[1]; Postemergence, 125 g ai/ha
  Plant response rating, Dayflower, VA: 60
[1]; postemergence, 62 g ai/ha
  Plant response rating, Dayflower, VA: 30 and 60
[1]; postemergence, 8 g ai/ha
  Plant response rating, Dayflower, VA: 25
[2]; Postemergence, 16 g ai/ha
  Plant response rating, Wild Poinsettia: 70
[2]; Postemergence, 31 g ai/ha
  Plant response rating, Wild Poinsettia: 75
[2]; Postemergence, 125 g ai/ha
  Plant response rating, Wild Poinsettia: 95
[2]; postemergence, 62 g ai/ha
  Plant response rating, Wild Poinsettia: 60 and 80
[2]; postemergence, 8 g ai/ha
  Plant response rating, Wild Poinsettia: 70
[3]; Postemergence, 16 g ai/ha
  Plant response rating, Hairy Beggarticks: 50
[3]; Postemergence, 31 g ai/ha
  Plant response rating, Hairy Beggarticks: 60
[3]; Postemergence, 125 g ai/ha
  Plant response rating, Hairy Beggarticks: 70
[3]; postemergence, 62 g ai/ha
  Plant response rating, Hairy Beggarticks: 50 and 60
[3]; postemergence, 8 g ai/ha
  Plant response rating, Hairy Beggarticks: 30
[4]; [10]
  Plant response rating, Corn: 0
[4]; [11]
  Plant response rating, Corn: 0
[4]; [12]
  Plant response rating, Corn: 15
[4]; [13]
  Plant response rating, Corn: 0
[4]; [14]
  Plant response rating, Corn: 0
[5]; [10]
  Plant response rating, Kochia: 70
[5]; [11]
  Plant response rating, Kochia: 80
[5]; [12]
  Plant response rating, Kochia: 90
[5]; [13]
  Plant response rating, Kochia: 20
[5]; [14]
  Plant response rating, Kochia: 25
[6]; Postemergence, 16 g ai/ha
  Plant response rating, Arrowleaf Sida: 75
[6]; Postemergence, 31 g ai/ha
  Plant response rating, Arrowleaf Sida: 85
[6]; Postemergence, 125 g ai/ha
  Plant response rating, Arrowleaf Sida: 85
[6]; postemergence, 62 g ai/ha
  Plant response rating, Arrowleaf Sida: 40 and 75
[6]; postemergence, 8 g ai/ha
  Plant response rating, Arrowleaf Sida: 60
[7]; Postemergence, 16 g ai/ha
  Plant response rating, Corn: 10
[7]; Postemergence, 31 g ai/ha
  Plant response rating, Corn: 10
[7]; Postemergence, 125 g ai/ha
  Plant response rating, Corn: 20
[7]; postemergence, 62 g ai/ha
  Plant response rating, Corn: 10 and 15
[7]; postemergence, 8 g ai/ha
  Plant response rating, Corn: 10
[8]; [10]
  Plant response rating, Giant Foxtail: 70
[8]; [11]
  Plant response rating, Giant Foxtail: 95
[8]; [12]
  Plant response rating, Giant Foxtail: 98
[8]; [13]
  Plant response rating, Giant Foxtail: 25
[8]; [14]
  Plant response rating, Giant Foxtail: 40
[9]; [10]
  Plant response rating, Pigweed, Palmer: 95
[9]; [11]
  Plant response rating, Pigweed, Palmer: 100
[9]; [12]
  Plant response rating, Pigweed, Palmer: 100
[9]; [13]
  Plant response rating, Pigweed, Palmer: 70
[9]; [14]
  Plant response rating, Pigweed, Palmer: 90
